Patent publication US10258625B2, “Method for treatment of metastatic and refractory cancers and tumors with an inducer that overcomes inhibition of T cell proliferation” (The Wistar Institute of Anatomy and Biology, priority 2015, dated 2019)
Read-outs that look alike come from different tables or passages of the source.

B1: IL-27: cytokine of the panel of T cell survival and/or proliferation cytokines (protein, UniProt Q8NEV9 29-243; Q14213 21-229, looked up)
Interleukin-27 subunit alpha: FPRPPGRPQLSLQELRREFTVSLHLARKLLSEVRGQAHRFAESHLPGVNLYLLPLGEQLPDVSLTFQAWRRLSDPERLCFISTTLQPFHALLGGLGTQGRWTNMERMQLWAMRLDLRDLQRHLRFQVLAAGFNLPEEEEEEEEEEEEERKGLLPGALGSALQGPAQVSWPQLLSTYRLLHSLELVLSRAVRELLLLSKAGHSVWPLGFPTLSPQP
Interleukin-27 subunit beta: RKGPPAALTLPRVQCRASRYPIAVDCSWTLPPAPNSTSPVSFIATYRLGMAARGHSWPCLQQTPTSTSCTITDVQLFSMAPYVLNVTAVHPWGSSSSFVPFITEHIIKPDPPEGVRLSPLAERQLQVQWEPPGSWPFPEIFSLKYWIRYKRQGAARFHRVGPIEATSFILRAVRPRARYYVQVAAQDLTDYGELSDWSLPATATMSLGK
B2: IL-7: recombinant mouse IL-7 (Peprotech) (protein, UniProt P10168 26-154, looked up)
Interleukin-7: ECHIKDKEGKAYESVLMISIDELDKMTGTDSNCPNNEPNFFRKHVCDDTKEAAFLNRAARKLKQFLKMNISEEFNVHLLTVSQGTQTLVNCTSKEEKNVKEQKKNDACFLKRLLREIKTCWNKILKGSI

Experiments:
human T cells = test: ConA-induced activation and expansion of human T cells (high-throughput screen); type: cell-based; settings: for EC50: T-cell, 168 h, read-out: EC50-T cells
MCF-7 tumor cells = test: MCF-7 cell proliferation, MTS assay; type: cell-based, human; settings: 2 days, compared with T cell division indices
Procedure: Representative results from one of two independent experiments.
(§1) Cell proliferation assays—Cells were plated in 96-well plates. Compounds were added the next morning, and cell proliferation was measured 48 hrs later with the […] 96 MTS assay (Promega) according to the manufacturer's instructions. Molecular screening of compounds on A2780 cells was performed by adding compounds the morning after plating in 384-well plates and measuring proliferation 72 hrs later with resazurin fluorescence. Normalized percent inhibition (NPI) was calculated with respect to fluorescence values obtained with DMSO negative control and doxorubicin (5 μM) positive control as NPI=100%*(DMSO−compound)/(DMSO−doxorubicin).

[1] = test system: A2780 ovarian cancer cells; test: Molecular screening of compounds on A2780 cell proliferation (resazurin fluorescence); type: cell-based, human; settings: for EC50: Homo sapiens, A2780 cells cultured 3 days (72 hrs), from normalized percent inhibition, N/A = ambiguous curve fits or EC50 greater than highest concentration tested (25 μM)
Procedure: Plots show the normalized percent inhibition (NPI) vs. concentration in log (μM).
as §1
EC50 values were calculated from normalized percent inhibition data using non-linear curve fitting in PRISM software.

T cells = test: Cytokine rescue of T cell proliferation from MEK inhibition; type: cell-based, human; settings: IL-2 20 U/ml, IL-7 2 ng/ml, IL-15 10 ng/ml, IL-21 100 ng/ml, IL-27 50 ng/ml, ALT-803 35.7 ng/ml
Text: Proliferation of CD8 T cells after 7 days is shown.
Proliferation of CD8 T cells is shown.
Reported are percentages of cells that proliferated with GDC0973 relative to vehicle treatment with the same cytokines after 7 days. Stains are not depicted.
T cell stimulation—For human T cell proliferation assays, peripheral blood lymphocytes were obtained by leukapheresis/elutriation and Miltenyi bead-purified and K562 cells expressing human CD32 were generated as previously described^41. K32 were γ-irradiated (100 Gy) and loaded with anti-CD3 (500 ng/ml, clone OKT3; eBioscience) plus anti-CD28 (500 ng/ml, clone 15E8; EMD Millipore) antibodies at room temperature for 10 minutes. PBMCs were labeled with CELLTRACE Violet stain (Invitrogen) according to the manufacturer's instructions and cocultured with loaded K32 cells at a 10:1 T cell to K32 ratio or activated with ConA (2 μg/ml, Sigma). Proliferation of stimulated T cells was determined 7 days later by FACS and Division Index was calculated using FlowJo™ software.

[2] = human T cells activated with ConA for 7 days, from normalized percent inhibition, N/A = ambiguous curve fits or EC50 greater than highest concentration tested (25 μM)

Row | Molecule | rescue of T cell proliferation in the presence of the MEK inhibitors (T cells) | EC50 (human T cells; [2]) [nM] | also measured
1 | C[C@]1(O)C[C@@H](c2nc(-c3ccc4ccc(-c5ccccc5)nc4c3)c3c(N)nccn32)C1 [OSI906] |  |  | activity on T cells (in words) (human T cells; ConA-driven in vitro proliferation of human T cells): did not show any activity; MCF-7 tumor cell proliferation (MCF-7 tumor cells): reduction in tumor cell proliferation at concentrations that did not affect T cells; activity on A2780 cells (in words) [1]: did not show any activity
2 | IL-15: Recombinant human IL-15 (Novoprotein); proliferative cytokine | able to rescue |  | 
3 | N#CC(=C(/N)Sc1ccccc1N)/C(C#N)=C(\N)Sc1ccccc1N [U0126] |  |  | EC50 (human T cells; Homo sapiens): 1920 nM; EC50 [1]: 12600 nM
4 | Cn1c(=O)n(-c2ccc(C(C)(C)C#N)cc2)c2c3cc(-c4cnc5ccccc5c4)ccc3ncc21 [BEZ235] |  | 2.4 | EC50 [1]: 21 nM
5 | CN(C)CC[C@H](CSc1ccccc1)Nc1ccc(S(=O)(=O)NC(=O)c2ccc(N3CCN(Cc4ccccc4-c4ccc(Cl)cc4)CC3)cc2)cc1[N+](=O)[O-] [ABT737] |  | 61 | 
6 | IL-21: cytokine of the panel of T cell survival and/or proliferation cytokines | no effect |  | 
7 | Cc1[nH]c2ccccc2c1CCNCc1ccc(/C=C/C(=O)NO)cc1 [LBH589] |  | 25 | 
8 | CC(=O)c1c(C)c2cnc(Nc3ccc(N4CCNCC4)cn3)nc2n(C2CCCC2)c1=O [PD0332991] |  | 110 | 
9 | B1 | no effect |  | 
10 | B2 | able to rescue |  | 
